One assay relates to select cancer cell lines. As to the kind of experiment: Cellular IC50 of NSAAH library (Table 3). The class given is cell-based. The procedure: (§1) Cell were maintained in standard tissue culture media (RPMI1640, +10% fetal bovine serum, plus antibiotic) and grown in a standard humidified 5% CO2 incubator at 37° C. Cells were regularly tested using the MycoAlert detection kit (Lonza Biologics) and shown to be mycoplasma-free. Initial compound screening was performed using both MDA-MB-23 land HCT-116 cell lines. For moderate throughput screening (up to 120 drugs per experiment), cells were seeded into 96 well plates and allowed to attach overnight. The following day media was removed and replaced with fresh compound containing media. Each compound was tested against both cell lines at 3 concentrations; 1 μM, 10 μM and 50 μM, in duplicate. Cells were incubated with compound containing media for three days in a standard 5% CO2 tissue culture incubator. Cell growth was assessed after 3 days using the DNA dye binding assay, as originally described by LaBarca and Paigen. Relative growth was independently calculated for each cell line, based on DNA content from corresponding cells grown in control media plus diluent (DMSO). Additional growth inhibition experiments utilized either the DNA binding assay or the Promega CellTiter 96® (MTT reduction) assay, with similar results. For detailed growth inhibition assays, cells (1500-2500 depending on the growth characteristics of the cell line) were seeded in standard 96 well tissue culture plates and allowed to attach overnight. The following day media was removed and replaced with drug containing media. Each dose group consisted of 5 replicate wells, and results are reported a Relative Growth, calculated as DNA or MTT reduction per well, divided by the signal from untreated cells, both harvested 3 days after drug administration.

Assay [1] deals with MDA-MB-231 and HCT-116 cell lines. As to the kind of experiment: Growth inhibition screening assay (In Cell IC50). Format: cell-based, human. To be noted: 3 days with compound; for IC50: Homo sapiens, 72 h. The procedure:
as §1

The test system of assay [2] is MDA-MB-231, HCT116, A549 and Panc1 cell lines. As to the kind of experiment: Detailed growth inhibition studies, median effect dose. The class given is cell-based. To be noted: Homo sapiens. The procedure:
Cell were maintained in standard tissue culture media (RPMI1640, +10% fetal bovine serum, plus antibiotic) and grown in a standard humidified 5% CO2 incubator at 37° C. […] For moderate throughput screening (up to 120 drugs per experiment), cells were seeded into 96 well plates and allowed to attach overnight. The following day media was removed and replaced with fresh compound containing media. Each compound was tested against both cell lines at 3 concentrations; 1 μM, 10 μM and 50 μM, in duplicate. Cells were incubated with compound containing media for three days in a standard 5% CO2 tissue culture incubator. Cell growth was assessed after 3 days using the DNA dye binding assay, as originally described by LaBarca and Paigen. Relative growth was independently calculated for each cell line, based on DNA content from corresponding cells grown in control media plus diluent (DMSO). […] The following day media was removed and replaced with drug containing media.
Over 190 compounds were screened for their ability to inhibit growth and/or induce cell death in established cancer cell lines.

The target in assay [3] is T1, hRR (hRRM1 and hRRM2) (Homo sapiens, UniProt P23921).
T1 sequence (P23921 1-792): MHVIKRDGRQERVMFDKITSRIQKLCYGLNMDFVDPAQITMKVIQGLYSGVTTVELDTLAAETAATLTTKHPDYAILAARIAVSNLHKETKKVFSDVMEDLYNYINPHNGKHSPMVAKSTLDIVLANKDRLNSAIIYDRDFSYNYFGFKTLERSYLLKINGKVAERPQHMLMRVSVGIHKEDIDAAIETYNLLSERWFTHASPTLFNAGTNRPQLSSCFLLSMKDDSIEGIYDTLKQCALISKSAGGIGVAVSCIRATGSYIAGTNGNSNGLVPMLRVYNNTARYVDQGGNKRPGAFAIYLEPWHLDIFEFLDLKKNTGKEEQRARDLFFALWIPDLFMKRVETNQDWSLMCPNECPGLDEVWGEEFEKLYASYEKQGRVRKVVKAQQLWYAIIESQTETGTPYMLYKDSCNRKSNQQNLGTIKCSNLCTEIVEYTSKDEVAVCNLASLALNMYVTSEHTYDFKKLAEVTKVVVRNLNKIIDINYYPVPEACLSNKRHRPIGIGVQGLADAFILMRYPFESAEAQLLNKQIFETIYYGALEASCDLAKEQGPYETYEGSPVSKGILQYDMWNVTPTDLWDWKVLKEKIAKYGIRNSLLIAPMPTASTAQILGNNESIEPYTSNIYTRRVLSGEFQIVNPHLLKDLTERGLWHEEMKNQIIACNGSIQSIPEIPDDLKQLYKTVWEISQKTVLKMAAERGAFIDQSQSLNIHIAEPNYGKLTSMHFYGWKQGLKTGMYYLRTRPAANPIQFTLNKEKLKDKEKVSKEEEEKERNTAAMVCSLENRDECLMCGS
T1 sequence (P31350 1-389 partner): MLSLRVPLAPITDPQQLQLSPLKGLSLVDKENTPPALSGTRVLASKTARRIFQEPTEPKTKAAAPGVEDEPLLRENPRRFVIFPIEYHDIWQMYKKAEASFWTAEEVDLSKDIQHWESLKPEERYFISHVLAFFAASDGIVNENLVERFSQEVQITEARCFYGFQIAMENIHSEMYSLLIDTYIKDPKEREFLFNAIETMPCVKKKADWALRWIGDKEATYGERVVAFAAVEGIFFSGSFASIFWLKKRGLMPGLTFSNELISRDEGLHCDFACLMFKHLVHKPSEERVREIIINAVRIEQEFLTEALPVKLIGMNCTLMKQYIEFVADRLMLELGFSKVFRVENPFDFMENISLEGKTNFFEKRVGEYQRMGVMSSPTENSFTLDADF
As to the kind of experiment: biochemical.
Method: (§2) The buffer solution (50 mM HEPES at pH 7.6, 5% (v/v) glycerol, 0.1M KCl) and the hRRM2 protein in the buffer solution were prepared under deoxygenated conditions. Both solutions were taken into the glove box and FeNH4SO4 was dissolved in the buffer solution. 5 equivalents of Fe (II) per hRRM2 dimer from FeNH4SO4 (determined by Ferrozine assay) was added to the protein solution and incubated at 4° C. in the glove box. Upon removal of the protein from the glove box, freshly prepared O2-saturated buffer solution (50 mM HEPES at pH 7.6, 5% (v/v) glycerol, 0.1M KCl) was added. Excess iron was removed by S200 10/300 size exclusion chromatography. […] The reaction mixture was pre-incubated for 3 min at 37° C., and 30 μL aliquots were sampled at fixed time intervals after initiating the reaction. Reactions were quenched by immersion in a boiling water bath, cooling, and treatment with alkaline phosphatase. The product ^14-dADP that formed during the reaction was separated from substrate-ADP using boronate affinity chromatography. ^14-dADP was quantified by liquid scintillation counting using a Beckman LS6500 liquid scintillation counter.
(§3) Briefly, boronate chromatography was used to separate the product.

For assay [4], the target named is T1, hRR (hRRM1 and hRRM2). To be noted: read-out: Cell-Free IC50; NSAAH library against hRR.
Method: as §2, §3

Where two headings read alike, the source gives them in different places. Square brackets hold non-standard residues; d marks the D form. Peptide text beside a SMILES is read from it. ξ: configuration not given here. ξY = NC(Cc1ccc(O)cc1)C(=O)O; Sar = CNCC(=O)O

For the molecule `O=[N+]([O-])c1ccc(S(=O)(=O)N/N=C/c2c(O)ccc3ccccc23)cc1`, the “Cellular IC50” value with select cancer cell lines was “No cytotoxicity”.

As to `CCCCCCCCCCCCCCCC(=O)N[C@@H](CCCCN)C(=O)N[C@@H](CCCCN)C(=O)OC`, in assay [1], the “In Cell IC50 (μM)” value is reported as “ne”. In general, inhibition refers to the drop in the measured response relative to a control, in per cent. For the molecule `OC(COc1ccc(OCC(O)CN2CCN(C3c4ccccc4-c4ccccc43)CC2)cc1)CN1CCN(C2c3ccccc3-c3ccccc32)CC1` (stereo not shown) [compound 2], the IC50 fell in the range of 1 to 10 µM in assay [2] (72 h, read-out: median effect dose (Dm), growth inhibitory activity) and 3 to 8 µM in assay [1]. For the same molecule, in assay [2] (read-out: growth inhibition), the inhibition at 10 µM is approximately 100%. Regarding `O=C(O)c1ccccc1-c1ccccc1C(=O)c1ccc2ccccc2n1`, the “Cellular IC50” value in the assay on select cancer cell lines is reported as “No cytotoxicity”. The IC50 on hRR (hRRM1 and hRRM2) [3] worked out at 3.8 µM. Regarding `OCc1ccccc1-n1cc(-c2ccc3cc(O)ccc3c2)nn1`, the “Cellular IC50” value in the assay with select cancer cell lines was “No cytotoxicity”. On hRR (hRRM1 and hRRM2) [3], this molecule had an IC50 of 607 µM. With `CN(C)c1ccc(C(=O)N/N=C/c2c(O)ccc3ccccc23)cc1`, in the assay with select cancer cell lines, the IC50 was more than 10 µM. Consider `CCCCCCCCCCCCCCNC(=O)[C@@H](N)CCN`, for which the “In Cell IC50 (μM)” value in assay [1] is on record as “ne”.

In turn, `Nc1ccc(C(=O)N/N=C/c2c(O)ccc3ccccc23)cc1Cl` gave an IC50 with select cancer cell lines of more than 10 µM. For the molecule `Cc1c(-n2cc(-c3ccc4cc(O)ccc4c3)nn2)c(=O)n(-c2ccccc2)n1C`, the “Cellular IC50” value in the assay on select cancer cell lines is “No cytotoxicity”. This molecule also showed an IC50 against hRR (hRRM1 and hRRM2) [3] of 31.3 µM. For `O=C(c1ccccc1O)n1cc(-c2c(O)ccc3ccccc23)nn1` the same measures were “No cytotoxicity” and 8.1 µM. `CC1(C)C2CC(=O)C1C(CS(=O)(=O)N/N=C/c1c(O)ccc3ccccc13)C2` (stereo not shown): in the assay with select cancer cell lines, the “Cellular IC50” value is on record as “No cytotoxicity”. For the same molecule, the IC50 on hRR (hRRM1 and hRRM2) [4] was 298 µM.

Turning to `CCOC(=O)C[C@@H](CC(=O)NCCN[C@H](C)c1ccc(O)c(C(=O)OC)c1)OC(C)=O`, the “In Cell IC50 (μM)” value in assay [1] is “ne^b”. For the molecule `O=C(N/N=C/c1c(O)ccc2ccccc12)c1cccnc1`, the “Cellular IC50” value in the assay on select cancer cell lines was “No cytotoxicity”. Moreover, at hRR (hRRM1 and hRRM2) [4], the IC50 turned out to be 5.3 µM. The molecule `O=C(N/N=C/c1ccc2cc(O)ccc2c1)c1ccccc1O` gave an IC50 in the assay on select cancer cell lines of more than 10 µM. `COc1cc(Br)ccc1C(=O)N/N=C/c1c(O)ccc2ccccc12`: in the assay on select cancer cell lines, the IC50 is more than 10 µM. As for `CC(NCCCCCO)c1cc(OCc2ccccc2)cc(OCc2ccccc2)c1` (stereo not shown), the “In Cell IC50 (μM)” value in assay [1] was “non-toxic”. In the assay with select cancer cell lines, `O=C(N/N=C/c1cc2ccccc2cc1O)c1ccccc1O` registered an IC50 of more than 10 µM. In the case of `O=C(N/N=C/c1c(O)ccc2ccccc12)OCc1ccccc1`, the “Cellular IC50” value with select cancer cell lines is recorded as “No cytotoxicity”. On to `O=S(=O)(N/N=C/c1c(O)ccc2ccccc12)c1ccccc1`, for which the IC50 with select cancer cell lines is more than 10 µM; at hRR (hRRM1 and hRRM2) [4], 122 µM. As for `CCCOc1ccc(C(=O)OCCN(CC)CC)cc1NS(=O)(=O)/C=C/c1ccccc1` [compound 8], the “In Cell IC50 (μM)” value in assay [1] is “ne^b”. Turning to `Cc1ccc(C(=O)N/N=C/c2c(O)ccc3ccccc23)cc1`, in the assay with select cancer cell lines, the “Cellular IC50” value is “No cytotoxicity”. Also, the IC50 on hRR (hRRM1 and hRRM2) [3] is 86.8 µM. In the case of `Nc1ccccc1C(=O)N/N=C/c1c(O)ccc2ccccc12`, the “Cellular IC50” value with select cancer cell lines was “No cytotoxicity”.

For the molecule `O=C(Nc1ccccc1C(=O)O)c1ccc2ccccc2n1`, the “Cellular IC50” value with select cancer cell lines is “No cytotoxicity”. This molecule returned an IC50 against hRR (hRRM1 and hRRM2) [3] of 15.3 µM. Regarding `O=C1C=Cc2cc(C3=NC4C=CC=CC4S(=O)(=O)N3)c(=O)oc2C1` (stereo not shown), in the assay on select cancer cell lines, the “Cellular IC50” value is recorded as “No cytotoxicity”. On hRR (hRRM1 and hRRM2) [3], the IC50 was 13.2 µM. Turning to `O=[N+]([O-])c1ccc(N/N=C/c2c(O)ccc3ccccc23)cc1`, in the assay with select cancer cell lines, the IC50 was more than 10 µM. In the case of `Cc1cccc2c(/C=N/NC(=O)c3ccccc3O)c[nH]c12`, in the assay with select cancer cell lines, the “Cellular IC50” value was “No cytotoxicity”. `Oc1ccc2ccccc2c1/C=N/NCc1ccccc1` showed an IC50 with select cancer cell lines of more than 10 µM.

As to `Cc1ccc(S(=O)(=O)N/N=C/c2c(O)ccc3ccccc23)cc1`, the “Cellular IC50” value with select cancer cell lines is on record as “No cytotoxicity”. At hRR (hRRM1 and hRRM2) [4], the IC50 is 6.8 µM. Molecule `O=C(N/N=C/c1c[nH]c2ccc(O)cc12)c1ccccc1O` had an IC50 with select cancer cell lines of more than 10 µM. On to `O=c1nc(-n2cc(-c3ccc4cc(O)ccc4c3)nn2)cc[nH]1`, for which the “Cellular IC50” value in the assay on select cancer cell lines is on record as “No cytotoxicity”. The molecule further yielded an IC50 against hRR (hRRM1 and hRRM2) [3] of 269 µM. For `CNCC(=O)N[C@@H](CCCNC(=N)N)C(=O)N[C@H](C(=O)NC(Cc1ccc(O)cc1)C(=O)N[C@H](C(=O)N[C@@H](Cc1cnc[nH]1)C(=O)O)C(C)C)C(C)C` (stereo partly shown) [compound 9] (H-[Sar]RV[ξY]VH-OH), the “In Cell IC50 (μM)” value in assay [1] was “non-toxic”. Turning to `COc1cc(C(=O)N/N=C/c2c(O)ccc3ccccc23)ccc1O`, in the assay on select cancer cell lines, the “Cellular IC50” value is “No cytotoxicity”. This molecule returned an IC50 at hRR (hRRM1 and hRRM2) [3] of 687 µM. For the molecule `CCOC(=O)C(NC(=O)CN[C@H]1CCCc2sccc21)C(=O)OCC`, the “In Cell IC50 (μM)” value in assay [1] is “ne^b”. As for `CCC(C)(C)c1ccc(OCCCCNC(=O)c2cc(Oc3ccc([N+](=O)[O-])cc3)c3ccccc3c2O)c(C(C)(C)CC)c1`, the “In Cell IC50 (μM)” value in assay [1] was “ne^b”.

On to `COc1ccc(C(=O)N/N=C/c2c(O)ccc3ccccc23)cc1`, for which the IC50 is more than 10 µM with select cancer cell lines; 94.1 µM at hRR (hRRM1 and hRRM2) [3]. Consider `COc1ccc(Br)cc1C(=O)N/N=C/c1c(O)ccc2ccccc12`, for which the IC50 in the assay with select cancer cell lines was more than 1 µM.

In the case of `Oc1ccc2ccccc2c1/C=N/Nc1ccc(Br)cc1`, the IC50 with select cancer cell lines was more than 10 µM.

With `O=C(N/N=C/c1c(O)ccc2ccccc12)c1ccc([N+](=O)[O-])c(Cl)c1`, the “Cellular IC50” value in the assay with select cancer cell lines was “No cytotoxicity”. Still for that read-out and setting: as for `O=C(N/N=C/c1c[nH]c2ccc([N+](=O)[O-])cc12)c1ccccc1O`, the entry is “No cytotoxicity”.

As for `O=S(=O)(Cc1ccccc1)N/N=C/c1c(O)ccc2ccccc12`, the “Cellular IC50” value with select cancer cell lines is “No cytotoxicity”. The same measure, in the same setting: in the case of `Oc1ccc(CCn2cc(-c3ccc4cc(O)ccc4c3)nn2)cc1` it was “No cytotoxicity”. As to `CC(C)(NC(=O)CN1C(=O)c2ccccc2C1=O)C(=O)NCCCC[C@H](NC(=O)CC(O)(C(F)(F)F)C(F)(F)F)C(=O)O` [compound 6], the IC50 in assay [1] was 30 µM. Turning to `O=c1oc(-c2ccccc2-c2ccccc2-c2nc3ccccc3c(=O)o2)nc2ccccc12`, the “Cellular IC50” value in the assay on select cancer cell lines is “No cytotoxicity”. This molecule also came in with an IC50 against hRR (hRRM1 and hRRM2) [3] of 40.2 µM. For the molecule `Oc1ccc2cc(-c3cn(-c4ccc5[nH]ccc5c4)nn3)ccc2c1`, the “Cellular IC50” value with select cancer cell lines is recorded as “No cytotoxicity”.
